# Measurements: patent publication US10077268B2, “FXR agonists and methods for making and using” (Salk Institute for Biological Studies, priority 2014, dated 2018)
# Read-outs that look alike come from different tables or passages of the source.
# How the values were obtained:
# DIO mice = assay: Hyperinsulinemic-euglycemic clamp in DIO mice; format: in vivo
# Procedure: FIGS. 15I-15K are a line graph and two bar graphs showing the effect of fexaramine treatment on body weight, insulin-stimulated GDR, and fasting insulin levels. Mice were fed HFD for 14 weeks, and then administered daily oral injections of vehicle or fexaramine (100 mg/kg) for 3 weeks with HFD. The mice treated with fexaramine were initially heavier (by 2-3 grams). Three weeks after treatment, a clamp study was performed on the mice. Data represent the mean±STD. Statistical analysis was performed with the Student's t test (*p<0.05, **p<0.01).
# [1] = system: FXR target gene expression; assay: FXR target gene expression (qPCR) after acute PO or IP treatment; format: in vivo, C57BL/6J mice; details: for FXR target genes (IBABP, OSTα, FGF15) in liver or kidney / FXR target genes (IBABP, OSTα, FGF15) in the intestine: PO
# Procedure: FIGS. 1A-1C are a comparative expression chart and two bar charts, respectively, illustrating increased levels of FXR target gene expression in the intestine relative to expression in the liver and kidney. 8 week-old C57BL/6J mice were treated with vehicle or fexaramine (100 mg/kg) via oral (PO) or intraperitoneal (IP) injection for three days (FIGS. 1A-1B) or five days (FIG. 1C).
# FXR target gene expression was analyzed by qPCR. Gene expression was normalized against a vehicle-treated group.
# FIG. 1F is a bar chart illustrating that orally delivered fexaramine is intestinally-restricted. Mice received vehicle or Fexaramine (100 mg/kg) via per os (PO) or intraperitoneal (IP) injection for 5 days. Expression of the FXR target gene SHP after PO or IP injection in selected tissues is shown.
# Upon exploration of the in vivo effects of fexaramine (Fex) administration, it was discovered that due to ineffectual absorption, oral (PO) and intraperitoneal (IP) drug delivery produced very different effects (FIGS. 1D and 1E).
# human TGR5 = biological target: T1, human TGR5 (Homo sapiens, UniProt Q8TDU6); assay: cAMP-response element luciferase reporter in HEK293 cells transfected with human TGR5; format: cell-based
# T1 construct: expressed in transfected cells; host or cells: HEK293
# T1 sequence (Q8TDU6 1-330): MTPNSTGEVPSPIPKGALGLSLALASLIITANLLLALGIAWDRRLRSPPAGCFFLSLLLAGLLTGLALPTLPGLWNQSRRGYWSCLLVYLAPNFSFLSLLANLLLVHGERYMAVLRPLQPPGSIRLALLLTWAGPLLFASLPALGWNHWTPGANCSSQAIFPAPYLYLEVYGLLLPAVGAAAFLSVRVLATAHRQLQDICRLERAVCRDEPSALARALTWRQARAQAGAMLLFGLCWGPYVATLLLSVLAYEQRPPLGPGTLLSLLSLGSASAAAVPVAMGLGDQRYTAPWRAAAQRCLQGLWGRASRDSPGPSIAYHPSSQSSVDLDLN
# Procedure: HEK293 cells were transfected with expression vectors for cAMP-response element luciferase, β-galactosidase and human TGR5. 24 hours after transfection, cells were treated with fexaramine or INT-777 (a TGR5 agonist).
# FXR-null mice = assay: HFD-fed FXR-null mice; format: in vivo; details: 100 mg/kg 5 weeks
# Procedure: Data represent the mean±SD. Statistical analysis was performed with the Student's t test. *p<0.05, **p<0.01.
smiles,measurement,setting,value
COC(=O)/C=C/c1cccc(N(Cc2ccc(-c3ccc(N(C)C)cc3)cc2)C(=O)C2CCCCC2)c1 [fexaramine],insulin-mediated suppression of HGP,DIO mice; compared to control DIO mice,marked increase
same,"basal HGP, GDR, IS-GDR, FFA suppression and fasting insulin levels",DIO mice; weight-matched cohorts,No differences
same,FXR target gene expression in the liver and kidney after IP injection,"[1]; IP, 100 mg/kg, five days",increases FXR target gene expression in the liver and kidney
same,induction of SHP in liver and kidney,"[1]; PO versus IP, 100 mg/kg for five days",only seen in liver and kidney after IP treatment
same,"FXR target genes (IBABP, OSTα, FGF15) in liver or kidney",[1]; 100 mg/kg,not in the liver or kidney
same,"FXR target genes (IBABP, OSTα, FGF15) in the intestine",[1]; 100 mg/kg,substantially enhances FXR target gene expression in the intestine
same,"FXR target genes (IBABP, OSTα, FGF15) in liver or kidney","[1]; 100 mg/kg, listed as Fex",failed to affect the expression of these genes in liver or kidney
same,"FXR target genes (IBABP, OSTα, FGF15) in the intestine","[1]; 100 mg/kg, listed as Fex",induced multiple FXR target genes in the intestine
same,induction of FXR target gene SHP throughout the intestine,"[1]; acute PO and IP, 100 mg/kg for five days",robust induction
same,activation of TGR5,human TGR5,fails to activate TGR5
same,activation of TGR5,human TGR5; listed as Fex,does not activate
same,Fex-induced changes in gene expression and improvements in metabolic homeostasis in FXR null mice,FXR-null mice,abrogated
